Laboratory results: ChEMBL document CHEMBL4342489, “Structure-Activity Relationship Evaluation of Wasp Toxin β-PMTX Leads to Analogs with Superior Activity for Human Neuronal Sodium Channels” (ACS Med Chem Lett, 2020)
Activity calls are given as the source filed them. No cut-off for these calls is given here. Non-standard residues stand in square brackets, D forms with d. Residues, ends and D or L forms follow the SMILES beside them. 1Nal = N[C@@H](Cc1cccc2ccccc12)C(=O)O; 2Nal = N[C@@H](Cc1ccc2ccccc2c1)C(=O)O

Legend:
[1] = target: Sodium channel protein type 9 subunit alpha (Homo sapiens) (UniProt Q15858); test: Activation of human Nav1.7 expressed in HEK293 cells assessed as ratio of compound activation AUC to baseline activation AUC at 3.3 uM at -120 mV holding potential by Qpatch assay; type: cell-based
[2] = target: Sodium channel protein type 1 subunit alpha (Homo sapiens) (UniProt P35498); test: Activation of human Nav1.1 expressed in HEK293 cells at 3.3 uM at -120 mV holding potential by Qpatch assay relative to control; type: cell-based
[3] = target: Sodium channel protein type 1 subunit alpha (Homo sapiens) (UniProt P35498); test: Activation of human Nav1.1 expressed in HEK293 cells assessed as ratio of compound activation AUC to baseline activation AUC at 0.37 uM at -120 mV holding potential by Qpatch assay; type: cell-based
[4] = target: Sodium channel protein type 1 subunit alpha (Homo sapiens) (UniProt P35498); test: Activation of human Nav1.1 expressed in HEK293 cells assessed as ratio of compound activation AUC to baseline activation AUC at 3.3 uM at -120 mV holding potential by Qpatch assay; type: cell-based
[5] = target: Sodium channel protein type 1 subunit alpha (Homo sapiens) (UniProt P35498); test: Activation of human Nav1.1 expressed in HEK293 cells assessed as ratio of compound activation AUC to baseline activation AUC at 0.12 uM at -120 mV holding potential by Qpatch assay; type: cell-based
[6] = target: Sodium channel protein type 3 subunit alpha (Homo sapiens) (UniProt Q9NY46); test: Activation of human Nav1.3 expressed in CHOK1 cells assessed as ratio of compound activation AUC to baseline activation AUC at 3.3 uM at -120 mV holding potential by Qpatch assay; type: cell-based
[7] = target: Sodium channel protein type 1 subunit alpha (Homo sapiens) (UniProt P35498); test: Activation of human Nav1.1 expressed in HEK293 cells assessed as ratio of compound activation AUC to baseline activation AUC at 1.11 uM at -120 mV holding potential by Qpatch assay; type: cell-based
[8] = target: Sodium channel protein type 2 subunit alpha (Homo sapiens) (UniProt Q99250); test: Activation of human Nav1.2 expressed in CHOK1 cells assessed as ratio of compound activation AUC to baseline activation AUC at 3.3 uM at -120 mV holding potential by Qpatch assay; type: cell-based
[9] = target: Sodium channel protein type 4 subunit alpha (Homo sapiens) (UniProt P35499); test: Activation of human Nav1.4 expressed in HEK293 cells assessed as ratio of compound activation AUC to baseline activation AUC at 3.3 uM at -120 mV holding potential by Qpatch assay; type: cell-based
[10] = target: Sodium channel protein type 5 subunit alpha (Homo sapiens, UniProt Q14524); test: Activation of human Nav1.5 expressed in HEK293 cells assessed as ratio of compound activation AUC to baseline activation AUC at 3.3 uM at -120 mV holding potential by Qpatch assay; type: cell-based; details: hek293, 3.3 µM
[11] = target: Sodium channel protein type 8 subunit alpha (Homo sapiens) (UniProt Q9UQD0); test: Activation of human Nav1.6 expressed in HEK293 cells assessed as ratio of compound activation AUC to baseline activation AUC at 3.3 uM at -120 mV holding potential by Qpatch assay; type: cell-based
[12] = target: Sodium channel protein type 1 subunit alpha (Mus musculus) (UniProt A2APX8); test: Activation of Nav1.1 in C57BL/6 mouse GABAergic cortical neurons assessed as rescue of ICA-121431-induced neuronal firing loss at 300 nM at holding potential -65 mV by current clamp assay

Chain of Sodium channel protein type 5 subunit alpha (Q14524 whole entry): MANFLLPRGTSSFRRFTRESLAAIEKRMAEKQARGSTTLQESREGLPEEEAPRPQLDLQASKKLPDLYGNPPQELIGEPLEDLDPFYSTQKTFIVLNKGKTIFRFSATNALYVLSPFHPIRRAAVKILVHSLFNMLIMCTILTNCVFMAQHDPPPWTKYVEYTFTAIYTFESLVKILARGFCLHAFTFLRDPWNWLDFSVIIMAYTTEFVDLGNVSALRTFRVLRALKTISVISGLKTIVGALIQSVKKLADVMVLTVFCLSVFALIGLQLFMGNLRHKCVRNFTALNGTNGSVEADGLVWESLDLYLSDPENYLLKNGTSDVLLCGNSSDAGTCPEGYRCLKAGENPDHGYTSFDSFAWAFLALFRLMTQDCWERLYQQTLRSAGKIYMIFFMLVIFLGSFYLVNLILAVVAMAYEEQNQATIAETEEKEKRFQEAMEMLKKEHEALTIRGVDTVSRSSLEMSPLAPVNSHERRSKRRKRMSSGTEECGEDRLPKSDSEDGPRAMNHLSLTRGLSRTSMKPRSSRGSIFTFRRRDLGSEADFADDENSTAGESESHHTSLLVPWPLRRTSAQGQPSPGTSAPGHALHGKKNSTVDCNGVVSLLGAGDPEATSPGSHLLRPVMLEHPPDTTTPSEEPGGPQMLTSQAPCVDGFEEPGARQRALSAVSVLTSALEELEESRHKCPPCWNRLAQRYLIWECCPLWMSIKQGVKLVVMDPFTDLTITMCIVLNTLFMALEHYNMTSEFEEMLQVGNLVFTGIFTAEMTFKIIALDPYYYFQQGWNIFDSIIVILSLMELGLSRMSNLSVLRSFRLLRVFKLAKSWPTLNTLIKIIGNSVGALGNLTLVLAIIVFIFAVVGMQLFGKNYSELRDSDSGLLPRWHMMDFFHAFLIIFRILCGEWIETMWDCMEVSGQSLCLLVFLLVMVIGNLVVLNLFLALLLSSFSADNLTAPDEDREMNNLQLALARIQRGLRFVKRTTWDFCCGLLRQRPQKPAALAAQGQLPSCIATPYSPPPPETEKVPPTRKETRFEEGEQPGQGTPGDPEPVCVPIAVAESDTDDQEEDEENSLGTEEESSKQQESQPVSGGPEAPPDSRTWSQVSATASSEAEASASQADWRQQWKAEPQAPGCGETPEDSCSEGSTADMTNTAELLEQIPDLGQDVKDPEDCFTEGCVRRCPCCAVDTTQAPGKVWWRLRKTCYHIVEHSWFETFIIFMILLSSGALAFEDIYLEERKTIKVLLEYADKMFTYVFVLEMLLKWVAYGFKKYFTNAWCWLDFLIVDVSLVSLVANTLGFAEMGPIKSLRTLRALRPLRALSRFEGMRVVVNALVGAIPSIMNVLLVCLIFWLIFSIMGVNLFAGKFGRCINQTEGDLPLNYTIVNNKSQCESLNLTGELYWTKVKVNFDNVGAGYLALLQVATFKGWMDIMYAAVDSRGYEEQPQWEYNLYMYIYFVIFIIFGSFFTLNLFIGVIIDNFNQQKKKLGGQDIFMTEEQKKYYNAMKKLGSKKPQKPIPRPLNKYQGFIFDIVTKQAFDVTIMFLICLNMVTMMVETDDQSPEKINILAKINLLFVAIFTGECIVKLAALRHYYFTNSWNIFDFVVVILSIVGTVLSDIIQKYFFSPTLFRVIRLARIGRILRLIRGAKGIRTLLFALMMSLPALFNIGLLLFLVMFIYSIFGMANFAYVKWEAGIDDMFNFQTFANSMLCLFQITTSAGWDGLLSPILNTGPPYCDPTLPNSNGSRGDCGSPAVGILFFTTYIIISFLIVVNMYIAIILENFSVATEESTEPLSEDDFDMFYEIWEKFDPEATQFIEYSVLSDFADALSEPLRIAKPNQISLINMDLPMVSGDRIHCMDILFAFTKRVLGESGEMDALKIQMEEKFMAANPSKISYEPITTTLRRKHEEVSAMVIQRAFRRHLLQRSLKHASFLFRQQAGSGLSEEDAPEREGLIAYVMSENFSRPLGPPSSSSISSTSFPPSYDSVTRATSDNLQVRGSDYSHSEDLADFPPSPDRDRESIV
Chain of Sodium channel protein type 8 subunit alpha (Homo sapiens) (Q9UQD0 whole entry, looked up): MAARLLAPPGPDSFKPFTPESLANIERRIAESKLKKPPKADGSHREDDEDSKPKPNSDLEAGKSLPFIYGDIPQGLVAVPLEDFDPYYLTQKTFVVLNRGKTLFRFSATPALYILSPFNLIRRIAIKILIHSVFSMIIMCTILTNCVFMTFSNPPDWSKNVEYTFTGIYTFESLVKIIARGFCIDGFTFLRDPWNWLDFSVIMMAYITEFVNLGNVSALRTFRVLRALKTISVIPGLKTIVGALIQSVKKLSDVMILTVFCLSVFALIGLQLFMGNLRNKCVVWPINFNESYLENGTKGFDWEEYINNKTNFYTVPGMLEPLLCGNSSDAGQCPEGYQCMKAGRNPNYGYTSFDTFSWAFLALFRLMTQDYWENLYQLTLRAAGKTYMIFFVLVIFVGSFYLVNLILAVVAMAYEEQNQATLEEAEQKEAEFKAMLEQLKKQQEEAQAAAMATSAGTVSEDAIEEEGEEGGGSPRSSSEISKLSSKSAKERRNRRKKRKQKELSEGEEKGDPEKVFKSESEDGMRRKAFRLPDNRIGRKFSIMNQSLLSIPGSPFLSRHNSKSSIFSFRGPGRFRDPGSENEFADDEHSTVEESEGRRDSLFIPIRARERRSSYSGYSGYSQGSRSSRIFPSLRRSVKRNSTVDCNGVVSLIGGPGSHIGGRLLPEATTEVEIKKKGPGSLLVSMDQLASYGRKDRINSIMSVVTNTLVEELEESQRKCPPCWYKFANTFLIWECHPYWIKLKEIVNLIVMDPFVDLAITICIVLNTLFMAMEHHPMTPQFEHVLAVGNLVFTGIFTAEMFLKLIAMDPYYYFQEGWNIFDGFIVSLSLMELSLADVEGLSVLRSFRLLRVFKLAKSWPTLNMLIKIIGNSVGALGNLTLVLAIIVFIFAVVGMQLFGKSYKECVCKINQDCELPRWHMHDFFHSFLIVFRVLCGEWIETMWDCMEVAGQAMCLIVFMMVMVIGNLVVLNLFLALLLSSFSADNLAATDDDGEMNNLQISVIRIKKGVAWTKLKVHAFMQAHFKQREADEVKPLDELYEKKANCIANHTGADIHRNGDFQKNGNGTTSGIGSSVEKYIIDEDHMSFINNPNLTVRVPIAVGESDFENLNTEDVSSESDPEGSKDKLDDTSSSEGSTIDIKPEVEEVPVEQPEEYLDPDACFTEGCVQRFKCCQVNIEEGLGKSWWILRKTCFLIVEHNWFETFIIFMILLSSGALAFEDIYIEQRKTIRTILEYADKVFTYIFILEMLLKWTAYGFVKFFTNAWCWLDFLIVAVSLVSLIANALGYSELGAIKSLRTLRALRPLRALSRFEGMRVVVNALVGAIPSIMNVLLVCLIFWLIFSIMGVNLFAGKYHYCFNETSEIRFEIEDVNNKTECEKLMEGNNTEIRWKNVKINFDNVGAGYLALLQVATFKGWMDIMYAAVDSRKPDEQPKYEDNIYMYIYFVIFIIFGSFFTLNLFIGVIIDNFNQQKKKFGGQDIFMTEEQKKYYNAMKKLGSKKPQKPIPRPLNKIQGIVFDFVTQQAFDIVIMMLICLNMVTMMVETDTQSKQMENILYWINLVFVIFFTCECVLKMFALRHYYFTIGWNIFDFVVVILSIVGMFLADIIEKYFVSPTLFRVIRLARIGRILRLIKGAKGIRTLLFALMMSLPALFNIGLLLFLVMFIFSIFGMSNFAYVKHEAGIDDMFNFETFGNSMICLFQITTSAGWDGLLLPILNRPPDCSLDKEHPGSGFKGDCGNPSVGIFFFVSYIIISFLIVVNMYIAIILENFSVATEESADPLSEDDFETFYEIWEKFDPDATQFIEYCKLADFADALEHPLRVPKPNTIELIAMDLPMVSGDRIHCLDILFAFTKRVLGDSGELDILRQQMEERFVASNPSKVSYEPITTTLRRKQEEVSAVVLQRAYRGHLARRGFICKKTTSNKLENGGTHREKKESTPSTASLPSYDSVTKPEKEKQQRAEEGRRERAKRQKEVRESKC

Structure (SMILES) | Ratio AUC [1] | Activity [2] | Ratio AUC [3] | Ratio AUC [4] | Ratio AUC [5] | Ratio AUC [6] | Ratio AUC [7] | Ratio AUC [8] | Ratio AUC [9] | Ratio AUC [10] | Ratio AUC [11] | Activity [12]
CC[C@H](C)[C@H](NC(=O)[C@H](CCCCN)NC(=O)[C@@H](NC(=O)[C@@H](N)CCCNC(=N)N)[C@@H](C)CC)C(=O)NCC(=O)N[C@@H](CC(C)C)C(=O)N[C@@H](Cc1ccccc1)C(=O)N[C@@H](CC(=O)O)C(=O)N[C@@H](CCC(N)=O)C(=O)N[C@@H](CC(C)C)C(=O)N[C@@H](CO)C(=O)N[C@@H](CCCNC(=N)N)C(=O)N[C@@H](CC(C)C)C(N)=O (H-RIKIGLFDQLSRL-NH2) | 1.1 | 40% | 1 | 1.4 | 1 | 1.2 | 1.1 | 0.9 | 0.8 | 1 | 1.3 | 
CC[C@H](C)[C@H](NC(=O)[C@H](CCCCN)NC(=O)[C@@H](NC(=O)[C@@H](N)CCCNC(=N)N)[C@@H](C)CC)C(=O)NCC(=O)N[C@@H](CC(C)C)C(=O)N[C@@H](Cc1cccc2ccccc12)C(=O)N[C@@H](CC(=O)O)C(=O)N[C@@H](CCC(N)=O)C(=O)N[C@@H](CC(C)C)C(=O)N[C@@H](CO)C(=O)N[C@@H](CCCNC(=N)N)C(=O)N[C@@H](CC(C)C)C(N)=O (H-RIKIGL[1Nal]DQLSRL-NH2) | 2.9 |  | 1.2 | 3.1 | 1 | 2 | 1.8 | 1.8 | 1.4 | 1.7 | 3.1 | Active
CC[C@H](C)[C@H](NC(=O)[C@H](CCCNC(=N)N)NC(=O)[C@@H](NC(=O)[C@@H](N)CCCNC(=N)N)[C@@H](C)CC)C(=O)NCC(=O)N[C@@H](CC(C)C)C(=O)N[C@@H](Cc1ccc2ccccc2c1)C(=O)N[C@@H](CC(=O)O)C(=O)N[C@@H](CCC(N)=O)C(=O)N[C@@H](CC(C)C)C(=O)N[C@@H](CC(C)C)C(=O)N[C@@H](CCCNC(=N)N)C(=O)N[C@@H](CC(C)C)C(N)=O (H-RIRIGL[2Nal]DQLLRL-NH2) | 9.6 | 1170% | 2.5 | 12.7 | 1.4 | 4.4 | 5.2 | 7.1 | 1.6 | 1.3 | 8.1 | 
